According to patent publication EP2158208B1, “PROCESS FOR PREPARING AN A2A-ADENOSINE RECEPTOR AGONIST AND ITS POLYMORPHS” (Gilead Sciences, Inc., priority 2007, dated 2008):

Legend:
A2A-adenosine receptor = A2A-adenosine receptor (Homo sapiens, UniProt P29274); details: disclosed in U.S. Patent No. 6,403,567; cited from earlier work
[1] = in humans; cited from earlier work
[2] = stability of polymorphs under relative humidity stress / atmospheric moisture; assay type: physicochemical; details: for stability under relative humidity stress conditions: up to melting point, monohydrate
Protocol: Moisture sorption/desorption data were collected on a VTI SGA-100 Vapor Sorption Analyzer. Sorption and desorption data were collected over a range of 5% to 95% relative humidity […] at 10% RH intervals under a nitrogen purge. Sodium chloride (NaCl) and polyvinylpyrrolidone (PVP) were used as the calibration standards. Equilibrium criteria used for analysis were less than 0.0100% weight change in 5 minutes, with a maximum equilibration time of 180 minutes if the weight criterion was not met. The plotted data have not been corrected for the initial moisture content.

[3] = stability of polymorphs with temperature (thermal analyses); assay type: physicochemical; details: for relative stability among the polymorphs: at ambient temperatures, monohydrate
Protocol: Thermogravimetric (TG) analyses were carried out on a TA Instruments 2050 or 2950 thermogravimetric analyzer. The calibration standards were nickel and Alumel™. Samples were placed in an aluminum sample pan, inserted into the TG furnace, and accurately weighed. The samples were heated in nitrogen at a rate of 10°C/min to either 300 or 350° C. Unless stated otherwise, samples weights were equilibrated at 25°C in the TGA furnace prior to analysis.
Differential scanning calorimetry (DSC) analyses were carried out on a TA Instruments differential scanning calorimeter 2920. Accurately weighed samples were placed in either crimped pans or hermetically sealed pans that contained a pinhole to allow for pressure release. Each sample was heated under nitrogen at a rate of 10°C/min to either 300 or 350°C. Indium metal was used as the calibration standard. Temperatures were reported at the transition maxima.

A2A-adenosine receptor, sequence (P29274 whole entry): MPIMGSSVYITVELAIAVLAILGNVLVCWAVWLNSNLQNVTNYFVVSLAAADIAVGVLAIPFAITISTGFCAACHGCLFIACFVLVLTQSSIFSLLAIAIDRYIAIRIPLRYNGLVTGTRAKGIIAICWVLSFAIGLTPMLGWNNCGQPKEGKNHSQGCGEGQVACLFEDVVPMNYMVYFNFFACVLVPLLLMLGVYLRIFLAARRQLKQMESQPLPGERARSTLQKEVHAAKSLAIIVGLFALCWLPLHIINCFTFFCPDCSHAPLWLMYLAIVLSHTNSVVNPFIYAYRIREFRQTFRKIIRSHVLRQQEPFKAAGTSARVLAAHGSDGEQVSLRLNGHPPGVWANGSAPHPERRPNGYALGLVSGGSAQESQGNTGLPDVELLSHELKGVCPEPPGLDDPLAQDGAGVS

CNC(=O)c1cnn(-c2nc(N)c3ncn([C@@H]4O[C@H](CO)[C@@H](O)[C@H]4O)c3n2)c1 [(1-{9-[(4S,2R,3R,5R)-3,4-dihydroxy-5-(hydroxymethyl)oxolan-2-yl]-6-aminopurin-2-yl}pyrazol-4-yl)-N-methylcarboxamide]
selectivity as A2A-adenosine receptor agonist (A2A-adenosine receptor): highly selective

Nc1ncnc2c1ncn2[C@@H]1O[C@H](CO)[C@@H](O)[C@H]1O [Adenosine]
half life [1]: less than 10 seconds

CNC(=O)c1cnn(-c2nc(N)c3ncn([C@@H]4O[C@H](CO)[C@@H](O)[C@H]4O)c3n2)c1 [Amorphous Material, (1-{9-[(4S,2R,3R,5R)-3,4-dihydroxy-5-(hydroxymethyl)oxolan-2-yl]-6-aminopurin-2-yl}pyrazol-4-yl)-N-methylcarboxamide]
stability in the presence of atmospheric moisture ([2]; atmospheric moisture): unstable in the presence of atmospheric moisture

CNC(=O)c1cnn(-c2nc(N)c3ncn([C@@H]4O[C@H](CO)[C@@H](O)[C@H]4O)c3n2)c1.O [Form A, (1-{9-[(4S,2R,3R,5R)-3,4-dihydroxy-5-(hydroxymethyl)oxolan-2-yl]-6-aminopurin-2-yl}pyrazol-4-yl)-N-methylcarboxamide monohydrate]
stability under relative humidity stress conditions ([2]; listed as monohydrate): stable under relative humidity stress conditions, up to its melting point | stability under relative humidity stress conditions [2]: stable under relative humidity stress conditions up to its melting point | relative stability among the polymorphs ([3]; listed as monohydrate): most stable | relative stability among the polymorphs [3]: most stable of the various polymorphs at ambient temperatures

CNC(=O)c1cnn(-c2nc(N)c3ncn([C@@H]4O[C@H](CO)[C@@H](O)[C@H]4O)c3n2)c1 [Form C, (1-{9-[(4S,2R,3R,5R)-3,4-dihydroxy-5-(hydroxymethyl)oxolan-2-yl]-6-aminopurin-2-yl}pyrazol-4-yl)-N-methylcarboxamide]
stability at elevated temperatures ([3]; elevated temperatures): desolvates to an unstable form
